Experimental data from ChEMBL document CHEMBL6087416, “Discovery of novel fused-heterocycle-bearing diarypyrimidine derivatives as HIV-1 potent NNRTIs targeting tolerant region I for enhanced antiviral activity and resistance profile” (Eur J Med Chem, 2025).

Assays:
[1] = system: Human immunodeficiency virus 1; assay: Antiviral activity against NNRTI-resistant HIV-1 harboring RT K103N mutant infected in human MT4 cells assessed as protection against virus-induced cytopathic effect incubated for 5 days by MTT assay; format: functional, organism-based; settings: Human immunodeficiency virus 1, MT4, 120 h
[2] = system: Human immunodeficiency virus 1; assay: Antiviral activity against NNRTI-resistant HIV-1 harboring RT E138K mutant infected in human MT4 cells assessed as protection against virus-induced cytopathic effect incubated for 5 days by MTT assay; format: functional, organism-based; settings: Human immunodeficiency virus 1, MT4, 120 h
[3] = system: Human immunodeficiency virus 1; format: functional, organism-based; settings: Human immunodeficiency virus 1, MT4, 120 h
[4] = system: Human immunodeficiency virus 1; assay: Antiviral activity against NNRTI-resistant HIV-1 harboring RT L100I mutant infected in human MT4 cells assessed as protection against virus-induced cytopathic effect incubated for 5 days by MTT assay; format: functional, organism-based; settings: Human immunodeficiency virus 1, MT4, 120 h
[5] = system: Human immunodeficiency virus 1; format: functional, organism-based; settings: Human immunodeficiency virus 1, MT4, 120 h; remark: listed apart in the source
[6] = system: Human immunodeficiency virus 1; format: functional, organism-based; settings: Human immunodeficiency virus 1, RES056, MT4, 120 h
[7] = system: Human immunodeficiency virus 1; format: functional, organism-based; settings: Human immunodeficiency virus 1, MT4, 120 h; remark: listed apart in the source
[8] = Cytotoxicity against human MT4 cells assessed as reduction in cell viability measured after 5 days by MTT assay; format: toxicity, cell-based; settings: time 5 day
[9] = system: Human immunodeficiency virus 2; assay: Antiviral activity against HIV-2 ROD infected in human MT4 cells assessed as protection against virus-induced cytopathic effect incubated for 5 days by MTT assay; format: functional, organism-based; settings: Human immunodeficiency virus 2, ROD, MT4, 120 h
[10] = target: Human immunodeficiency virus type 1 reverse transcriptase (Human immunodeficiency virus 1, UniProt Q72547); assay: Inhibition of wild type HIV-1 Reverse transcriptase incubated for 1 hrs by ELISA analysis
[11] = in vitro; settings: human, MT4 cells
Description: Selectivity index, ratio of CC50 for human MT4 cells to EC50 for wild type HIV-1 IIIB infected in human MT4 cells

[12] = in vitro; settings: human, MT4 cells; remark: listed apart in the source
Description: Selectivity index, ratio of CC50 for human MT4 cells to EC50 for HIV-1 RES056 harboring RT K103N/Y181C mutant infected in human MT4 cells

[13] = system: Human immunodeficiency virus 1; assay: microbe, parasite or virus in culture; settings: Human immunodeficiency virus 1, IIIB, MT4, 120 h
Description: Antiviral activity against wild type HIV-1 IIIB infected in human MT4 cells assessed as protection against virus-induced cytopathic effect incubated for 5 days by MTT assay

[14] = in vitro; settings: human, MT4 cells; remark: listed apart in the source
Description: Selectivity index, ratio of CC50 for human MT4 cells to EC50 for HIV-2 ROD infected in human MT4 cells

Compound	EC50 [1]	EC50 [2]	EC50 [3]	EC50 [4]	EC50 [5]	EC50 [6]	EC50 [7]	CC50 at 120 h [8]	EC50 [9]	IC50 [10]	selectivity ratio [11]	selectivity ratio [12]	EC50 [13]	selectivity ratio [14]
Cc1cc(/C=C/C#N)cc(C)c1Oc1ccnc(Nc2ccc3c(c2)COC3)n1	6 nM	39 nM	99 nM	47 nM	4900 nM	1080 nM	700 nM	14000 nM	> 14000 nM	29 nM	7440	573	2 nM	
Cc1cc(/C=C/C#N)cc(C)c1Oc1ccnc(Nc2ccc3ncsc3c2)n1						2870 nM		46000 nM	> 46000 nM	70 nM	5140	16	9 nM	
Cc1cc(/C=C/C#N)cc(C)c1Oc1ccnc(Nc2ccc3nsnc3c2)n1						560 nM		20600 nM	1260 nM	37 nM	2850	37	7 nM	16.4
Cc1cc(/C=C/C#N)cc(C)c1Oc1ccnc(Nc2ccc3c(c2)CN(C(=O)CS(C)(=O)=O)CC3)n1						> 8640 nM		8640 nM	> 8640 nM	230 nM	524	1	17 nM	
Cc1cc(/C=C/C#N)cc(C)c1Oc1ccnc(Nc2ccc3nccn3c2)n1	8 nM	58 nM	210 nM	64 nM	3910 nM	1450 nM	960 nM	28700 nM	> 28700 nM	29 nM	14600	20	2 nM	
Cc1cc(/C=C/C#N)cc(C)c1Oc1ccnc(Nc2ccc3c(c2)OCO3)n1						2220 nM		40800 nM	8200 nM	26 nM	5260	18	8 nM	4.98
Cc1cc(/C=C/C#N)cc(C)c1Oc1ccnc(Nc2ccc3c(c2)NC(=O)C3)n1	4 nM	46 nM	72 nM	54 nM	> 50300 nM	33700 nM	14400 nM	> 50300 nM	> 50300 nM	53 nM	> 27600	> 1	2 nM	
Cc1cc(/C=C/C#N)cc(C)c1Oc1ccnc(Nc2ccc3c(c2)CN(S(N)(=O)=O)CC3)n1						6470 nM		11600 nM	> 11600 nM	110 nM	743	2	16 nM	
Cc1cc(/C=C/C#N)cc(C)c1Oc1ccnc(Nc2ccc3c(c2)CCN(CCS(C)(=O)=O)C3)n1						> 4770 nM		4770 nM	> 4770 nM	170 nM	256		19 nM	
Cc1cc(/C=C/C#N)cc(C)c1Oc1ccnc(Nc2ccc3c(c2)C(=O)N(C)C3=O)n1						4670 nM		> 294000 nM	165000 nM	54 nM	> 52500	> 63	6 nM	> 1.78
Cc1cc(/C=C/C#N)cc(C)c1Oc1ccnc(Nc2ccc3c(c2)OC(F)(F)O3)n1						5310 nM		19200 nM	> 19200 nM	90 nM	966	4	20 nM	
Cc1cc(/C=C/C#N)cc(C)c1Oc1ccnc(Nc2ccc(N3CCN(S(C)(=O)=O)CC3)c(C#N)c2)n1	2 nM	6 nM	6 nM	4 nM	740 nM	93 nM	10 nM	10200 nM	> 10200 nM		7170	110	1 nM	
Cc1cc(/C=C/C#N)cc(C)c1Oc1ccnc(Nc2ccc3c(c2)C(=O)NCC3)n1	11 nM	21 nM	44 nM	14 nM	> 3190 nM	1340 nM	> 3190 nM	3190 nM	> 3190 nM	46 nM	1220	2	3 nM	
Cc1cc(/C=C/C#N)cc(C)c1Oc1ccnc(Nc2ccc3oncc3c2)n1						4150 nM		17600 nM	> 17600 nM	65 nM	2640	4	7 nM	
Cc1cc(/C=C/C#N)cc(C)c1Oc1ccnc(Nc2ccc3c(cnn3C)c2)n1	18 nM	54 nM	180 nM	92 nM	> 50400 nM	> 50400 nM	> 50400 nM	> 50400 nM	> 50400 nM	45 nM	> 18200		3 nM	
Cc1cc(/C=C/C#N)cc(C)c1Oc1ccnc(Nc2ccc3cnsc3c2)n1	4 nM	14 nM	48 nM	14 nM	990 nM	450 nM	500 nM	10100 nM	> 10100 nM	19 nM	4140	22	2 nM	
Cc1cc(/C=C/C#N)cc(C)c1Oc1ccnc(Nc2ccc3occc3c2)n1						8590 nM		216000 nM	45500 nM	55 nM	31100	25	7 nM	4.74
Cn1c(Cn2ccc(C(F)(F)F)c(Oc3cc(Cl)cc(C#N)c3)c2=O)n[nH]c1=O [DORAVIRINE]	10 nM	19 nM	17 nM	8 nM	1710 nM	50 nM	22100 nM	> 47000 nM	> 47000 nM	30 nM	> 6760	> 931	7 nM	
O=C1Nc2ccc(Cl)cc2[C@@](C#CC2CC2)(C(F)(F)F)O1 [EFAVIRENZ]		9 nM	9 nM					> 6340 nM	> 6340 nM					
Cc1cc(C#N)cc(C)c1Oc1nc(Nc2ccc(C#N)cc2)nc(N)c1Br [ETRAVIRINE]					31 nM	32 nM	17 nM	> 4590 nM	> 4590 nM					
Cc1ccnc2c1NC(=O)c1cccnc1N2C1CC1 [NEVIRAPINE]	5220 nM		5830 nM		> 9510 nM	> 9510 nM	> 9510 nM	> 9510 nM	> 9510 nM				130 nM	
Cc1cn([C@H]2C[C@H](N=[N+]=[N-])[C@@H](CO)O2)c(=O)[nH]c1=O [ZIDOVUDINE]	36 nM	47 nM	41 nM	14 nM	40 nM	35 nM		> 7480 nM	39 nM		> 186	> 215	40 nM	> 192
